This note sets out measurements from ChEMBL document CHEMBL2150872, “A transcription factor hijacking to regulate RARα by using a chimeric molecule of retinoic acid and a DNA alkylator” (Bioorg Med Chem Lett, 2011).

Structures are written as SMILES. The source made the active and inactive calls. No cut-off for these calls is given here.

The nature of test [1]: Induction of RARalpha recruitment to [gamma-32P]-5'-end labeled pUC18 DNA fragment at 1 mM after 30 mins by EMSA. (Mobility shift assays separate free from complexed probe on a gel.)
The test system of test [2] is Nucleic Acid. As to the kind of experiment: Binding affinity to [gamma-32P]-5'-end labeled pUC18 DNA fragment assessed as alkylation at N7 positions of guanine base by strand-breakage assay. The format is nucleic-acid assay.
In test [3] the target is T1, Retinoic acid receptor alpha (Homo sapiens) (UniProt P10276).
T1 sequence (whole entry): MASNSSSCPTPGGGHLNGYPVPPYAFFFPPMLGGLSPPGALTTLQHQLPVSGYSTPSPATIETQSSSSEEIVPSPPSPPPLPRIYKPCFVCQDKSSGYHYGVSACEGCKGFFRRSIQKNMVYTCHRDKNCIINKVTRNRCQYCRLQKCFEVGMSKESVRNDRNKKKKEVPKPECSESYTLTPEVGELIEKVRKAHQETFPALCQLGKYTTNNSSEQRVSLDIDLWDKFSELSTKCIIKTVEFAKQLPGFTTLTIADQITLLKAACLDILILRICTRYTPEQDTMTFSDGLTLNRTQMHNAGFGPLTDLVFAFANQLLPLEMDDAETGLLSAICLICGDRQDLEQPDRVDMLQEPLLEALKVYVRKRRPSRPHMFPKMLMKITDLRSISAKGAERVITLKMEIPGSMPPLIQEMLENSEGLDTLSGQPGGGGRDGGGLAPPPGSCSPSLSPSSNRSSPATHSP
Kind of test: Inhibition of transactivation of RARalpha overexpressed in COS cells after 24 hrs by luciferase reporter gene assay in presence of ATRA. Type of test: cell-based. (In a reporter assay the amount or activity of a reporter protein is the signal.)

The subject of test [4] is Nucleic Acid. As to the kind of experiment: Binding affinity to [gamma-32P]-5'-end labeled pUC18 DNA fragment by autoradiography. The format is nucleic-acid assay.
Test [5] addresses T1, Retinoic acid receptor alpha (Homo sapiens). As to the kind of experiment: Displacement of [3H]ATRA from RARalpha overexpressed in COS cell extract after 12 hrs by liquid scintillation counting. The format is cell-free.
Test [6] shares this target. Kind of test: Displacement of [3H]ATRA from RARalpha overexpressed in COS cell extract at 10 nM after 12 hrs by liquid scintillation counting. The format is cell-free.
Test [7] is described as follows: Induction of RARalpha recruitment to [gamma-32P]-5'-end labeled pUC18 DNA fragment at 10 mM after 30 mins by EMSA.

`O=C(O)CCCc1ccc(N(CCCl)CCCl)cc1`: in test [1], the outcome was inactive. In addition, the result in test [2] was Active.
For `CC1=C(/C=C/C(C)=C/C=C/C(C)=C/C(=O)NCCCc2ccc(N(CCCl)CCCl)cc2)C(C)(C)CCC1`, the inhibition result in test [3] is “Dose-dependent effect”. Also, the outcome in test [4], in test [2], in test [6] and in test [7] was Active. Further, in test [5], the Activity entry is “Dose-dependent effect”.
